Data set [1] deals with T1, human KMO (Homo sapiens, UniProt O15229). Briefly: SPR binding assay (Biacore T200). The following applies: for Kon: association rate; for Kd: dissociation constant. Set-up: purchased Cosmo Bio USA. The method, then:
The protein was manually immobilized on a Series S Sensor Chip CM5 based on an amine coupling method with minor modification. An SPR assay was conducted on the Biacore T200 SPR instrument (Cytiva; Marlborough, MA, USA). […] Ro 61-8048 stock solution (6 mM; dissolved in DMSO) was diluted into a series of concentrations ranging from 1.25 to 20 μM in the running buffer.

Data set [2] concerns the target T1, human KMO. Briefly: KMO enzyme activity (inhibitor screening kit) assay. The class given is biochemical. More on the design: purchased BPS Bioscience. The following applies: read-out: % inhibition of KMO.
Data set [3] addresses T1, human KMO. The data set is described as above. The class given is biochemical. Set-up: purchased BPS Bioscience. The following applies: for IC50: human KMO enzyme; for inhibition at 100 µM: read-out: % inhibition of KMO enzyme activity. The procedure:
The enzymatic assay was performed in duplicate. Ro 61-8048 was used as the positive control. The test compounds were dissolved in DMSO at 100 mM and diluted to 1 mM in assay buffer. A reaction mixture of assay buffer (50 μL), human KMO (20 μg/mL; 50 μL), test compounds (1 mM; 10 μL), and substrate (40 μL NADPH (10 mM) plus L-Kyn (20 mM)) were incubated in a 96-well plate at room temperature for 1.5 h. The absorbance was recorded at 340 nm. The enzyme activity was expressed as % activity as follows: % Activity=[(Abssample−Absblank)/(Abscontrol−Absblank)]×100
% Inhibition was calculated by subtracting the % activity from 100%.

In data set [4] the target is T1, human KMO. Briefly: Competitive SPR binding assay. The conditions noted are these: for Experimental RU: CFA 75 μM, Ro 61-8048 5 μM, alone or combined.
Method: HBS-P+ (20 mM; 0.02 M HEPES, 0.3 M NaCl, 0.1% v/v surfactant P20; pH 7.4) containing 3% DMSO was used as the running buffer. […] Ro 61-8048 was prepared as a final concentration of 5 μM in running buffer. […] FO(A)=1/1+KDA/CA(1+CB/KDB);FO(B)=1/1+KDB/CB(1+CA/KDA) where CA and CB are the respective concentrations of both binders, and KDA and KDB represent the equilibrium dissociation constants of the binders. The FO values were used to calculate the theoretical RU representative of competing compounds using the following equation [23]: Robserved=FO(A)·Rmax(A)+FO(B)·Rmax(B)
Data set [5] relates to KMO. Set-up: method as in PMID 28464785. The following applies: rat liver and kidney homogenates in vitro; cited from earlier work.
Details of data set [6]: method as in PMID 21640374. The following applies: cited from earlier work.
The test system of data set [7] is KMO. The following applies: KMO inhibitor; cited from earlier work.

Each structure is given as a SMILES string. Like-named read-outs stand apart in the source and are kept apart here.

T1 sequence (O15229 whole entry): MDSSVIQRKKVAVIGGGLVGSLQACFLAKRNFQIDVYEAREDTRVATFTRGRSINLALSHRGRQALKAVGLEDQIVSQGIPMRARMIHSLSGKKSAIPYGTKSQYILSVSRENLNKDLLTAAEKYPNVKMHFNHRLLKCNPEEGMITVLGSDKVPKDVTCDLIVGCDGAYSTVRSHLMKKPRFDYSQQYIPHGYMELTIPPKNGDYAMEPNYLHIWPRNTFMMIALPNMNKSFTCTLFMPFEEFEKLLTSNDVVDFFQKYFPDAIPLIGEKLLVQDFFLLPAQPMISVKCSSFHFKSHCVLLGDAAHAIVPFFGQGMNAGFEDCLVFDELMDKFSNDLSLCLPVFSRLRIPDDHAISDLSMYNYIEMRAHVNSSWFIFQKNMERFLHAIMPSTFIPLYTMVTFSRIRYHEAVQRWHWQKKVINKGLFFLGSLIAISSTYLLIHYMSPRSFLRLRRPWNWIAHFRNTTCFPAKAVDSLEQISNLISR

Take `COc1cc(-c2cc(=O)c3c(O)c(C/C=C(\C)CCC=C(C)C)c(O)cc3o2)ccc1O` [CFA, cannflavin A]: at human KMO [1] (SPR), the Kon is reported as 0.3 ×10^3, 1/Ms and binding was characterised by a dissociation constant (Kd) of 41 µM. The Koff on human KMO [1] (SPR, dissociation rate) is recorded as 14.2 ×10^−3, 1/s. Moreover, the kon at human KMO [1] (SPR, read-out: association rate) stood at 300 M⁻¹ s⁻¹. Also, on human KMO [1] (SPR, read-out: dissociation rate), the Koff worked out at 0.0142 s⁻¹. The “binding response unit (RU)” value on human KMO [1] (at 10 μM) stood at 5.6 RU. In addition, on human KMO [1] (at 19 μM), the “binding response unit (RU)” value is 10.4 RU. Besides, the “binding response unit (RU)” value at human KMO [1] (at 38 μM) is on record as 17.9 RU. Moreover, the “binding response unit (RU)” value on human KMO [1] (at 150 μM) is 35.7 RU. Besides, the “binding response unit (RU)” value on human KMO [1] (at 300 μM) came to 40.7 RU. Also, on human KMO [2], the inhibition at 2.5 µM came to 8.5%, the inhibition at 5 µM was determined as 15%, the inhibition at 20 µM was determined as 38% and the inhibition at 40 µM was 59%. For the same molecule, at human KMO [3], half-maximal inhibition (IC50) required 29.4 µM and the inhibition at 100 µM worked out at 99%. Further, the “Experimental RU” value at human KMO [4] was 27 RU. In addition, the “binding mode of CFA and Ro 61-8048 to the KMO protein” value at human KMO [4] (competitive SPR analysis) is “competitive, rather than non-competitive binding”.

For the molecule `C=C(C)[C@@H]1CCC(C)=C[C@H]1c1c(O)cc(CCC)cc1O` [CBDV, cannabidivarin], on human KMO [3], the inhibition at 100 µM amounted to 0%.

As for `CCCCCc1cc(O)c(C/C=C(\C)CCC=C(C)C)c(O)c1` [CBG, cannabigerol], at human KMO [3], the inhibition at 100 µM turned out to be 1%.

`CCCCCc1cc(O)c(C/C=C(\C)CCC=C(C)C)c(O)c1C(=O)O` [CBGA, cannabigerolic acid]: on human KMO [3], the inhibition at 100 µM was 1%.

With `CCCCCc1cc(O)c2c(c1)OC(C)(C)c1ccc(C)cc1-2` [CBN, cannabinol], the inhibition at 100 µM at human KMO [3] amounted to 0%.

For `COc1ccc(S(=O)(=O)Nc2nc(-c3cccc([N+](=O)[O-])c3)cs2)cc1OC` [Ro 61-8048, 3,4-Dimethoxy-[-N-4-(Nitrophenyl)Thiazol-2YL]-Benzenesulfonamide, reference compound], at human KMO [1] (SPR), the Kon was 3.7 ×10^3, 1/Ms. Besides, at human KMO [1] (SPR), the affinity, expressed as Kd, was 11 µM. For the same molecule, at human KMO [1] (SPR, dissociation rate), the Koff is listed as 38.5 ×10^−3, 1/s. The “binding response unit (RU)” value on human KMO [1] (at 1 μM) is given as 1.48 RU; on human KMO [1] (at 3 μM), 2.99 RU; on human KMO [1] (at 10 μM), 13.4 RU; on human KMO [1] (at 20 μM), 27.0 RU. Moreover, the figures for the IC50 in the data set on KMO [5] and on human KMO [3] were 0.037 µM and 5.1 µM, respectively. Further, on human KMO [4], the “Experimental RU” value is 19 RU. Besides, the “crossing of the blood brain barrier” value in data set [6] is recorded as “cannot cross the blood brain barrier”.

On to `NC(CC(=O)c1cccc([N+](=O)[O-])c1)C(=O)O` (stereo not drawn), for which the half-inhibitory concentration (IC50) with KMO [7] was 0.9 µM.

As to `CCCCCc1cc(O)c2c(c1)OC(C)(C)[C@@H]1CC=C(C)C[C@@H]21` [Δ^8 THC, delta-8-Tetrahydrocannabinol], the inhibition at 100 µM at human KMO [3] was 1%.

In the case of `CCCCCc1cc(O)c2c(c1)OC(C)(CCC=C(C)C)C=C2` (stereo not drawn) [CBC, cannabichromene], the inhibition at 100 µM at human KMO [3] was 0%.

For the molecule `O=C(O)[C@H]1C[C@@H]1C(=O)c1ccc(Cl)c(Cl)c1` [UPF-648], in the data set on KMO [7], the IC50 is 0.04 µM.

Take `C=C(C)[C@@H]1CCC(C)=C[C@H]1c1c(O)cc(CCCCC)cc1O` [CBD, cannabidiol, reference compound]: the inhibition at 100 µM on human KMO [3] came to 6%.

For the molecule `CCCCCc1cc(O)c2c(c1)OC(C)(C)C1=C2C(O)C(C)(O)CC1` (stereo not drawn) [CBT, cannabitriol], the “% inhibition of KMO enzyme activity” value on human KMO [3] (at 100 μM) was 11%.

Source of the values: PMC9598531 (Biology, 2022).
